Test results as given in US11197873B2, “Azolium salts for treatment of non-muscle invasive bladder cancer” (The University of Akron, priority 2019, dated 2021).

Columns and labels:
Type in all cases: cell-based, human
[1] = tested on: bladder cancer cell lines; experiment: CellTiter-Glo assay, growth inhibition at 1 h exposure
Method: (§1) Select bladder cancer cell lines were seeded at 10,000 cells/well in black-walled 96 well plates and incubated for 24 h. Cells were treated with compound in their respective media (as recommended by ATCC) at concentrations of 500 to 7.8 μM dissolved in two-fold dilution increments or vehicle for 1 h, followed by replacement of treatment media with normal growth media. After 24 h, plates with cells were incubated at room temperature for 30 min, followed by the addition of 20 μL of CellTiter-Glo® luminescent cell viability assay reagent (Promega) and mixing. After 2 min of incubation at room temperature, luminescence for each plate was measured using IVIS. Relative survival for each treatment group was calculated using vehicle control. All treatments were performed in quadruplicate.

[2] = tested on: RT4 cell line; experiment: Relative survival at varying concentration and exposure time, 24 h recovery; conditions: 5 min exposure time
Method: (§2) FIG. 4 provides the relative survival of RT4 cells in part A and RT112 cells in part B that were treated with varying concentrations of III for different exposure times followed by a 24 h recovery.
as §1

[3] = tested on: RT112 cell line; experiment: as above; conditions: 5 min exposure time
Method: as §2
Select bladder cancer cell lines were seeded at 10,000 cells/well in black-walled 96 well plates and incubated for 24 h. […] After 24 h, plates with cells were incubated at room temperature for 30 min, followed by the addition of 20 μL of CellTiter-Glo® luminescent cell viability assay reagent (Promega) and mixing. After 2 min of incubation at room temperature, luminescence for each plate was measured using IVIS. Relative survival for each treatment group was calculated using vehicle control. All treatments were performed in quadruplicate.

CN1/C(=C/C=C/c2n(Cc3ccc4ccccc4c3)c(Cl)c(Cl)[n+]2Cc2ccc3ccccc3c2)Oc2ccccc21.[Cl-] [III, 4,5-dichloro-2-((1E,3Z)-3-(3-methylbenzoxazol-2(3H)-ylidene)prop-1-en-1-yl)-1,3-bis(naphthalen-2-ylmethyl)-1H-imidazolium chloride]
GI50 compared with both triphenylphosphonium compounds [1]: extremely lower GI50 concentrations
concentration that inhibits cell survival [2]: 10 µM
concentration that inhibits cell survival [3]: 40 µM
